Data on 78 compounds can be found in the supplement of paper PMC6723410.

Each structure is given as a SMILES string.

The first experiment deals with GUMC-403. The experiment in a line: viability at highest tested concentration (max response) relative to DMSO (% of DMSO control); higher = less cytotoxic. Particulars: library / dose series: MIPE library, 11-point 1:3 dilution; top concentration 46.1 µM; 48 h. Summed up:
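Each figure stands for viability at the highest tested concentration compared with vehicle control. It was measured by CellTiter-Glo luminescence on a ViewLux after 48 h of exposure to 23 nL of pinned compound, with vehicle wells taken as 100% and empty wells as 0%. The cells were patient-derived GUMC-403 papilloma cells grown by conditional reprogramming, plated at 700/well in 5 μL F + Y medium in 1536-well plates.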
For `COc1cc2c(cc1OC)[C@@H]1Cc3ccc(OC)c(OC)c3CN1CC2`, the viability came to 115.
`Cc1ccc(CN2CCNCC2)cc1NC(=O)CNc1ccc(F)c(F)c1` returned a viability of 98.9.
The same measure, in the same setting: the result for `COC(=O)C1C2CC3c4[nH]c5cc(OC)ccc5c4CCN3CC2CC(OC(=O)c2cc(OC)c(OC)c(OC)c2)C1OC` (stereo not drawn) reads 101; that for `NC(=O)c1cccc(-c2cc(Nc3ccc(OC(F)(F)F)cc3)ncn2)c1`, 117; that for `O=c1[nH]c2ccccc2n1CCCN1CCC(n2c(=O)[nH]c3cc(Cl)ccc32)CC1`, 130.
The same measure, in the same setting: as for `O=C(Nc1nc2cccc(-c3ccc(CN4CC[S+](=O)([O-])CC4)cc3)n2n1)C1CC1`, the figure is 40.4; as for `C[C@H]1[C@@H](OC(=O)CCC(=O)O)O[C@@H]2O[C@@]3(C)CC[C@H]4[C@H](C)CC[C@@H]1[C@@]24OO3`, 97.7.
Still for that read-out and setting: as for `Cc1ccc([S+](=O)([O-])Nc2cc(Cl)ccc2C(=O)Nc2nc(-c3ccccc3)cs2)cc1`, the figure is 104.
As to `NC\1=N\C(=O)N(\C=C1)[C@@H]2O[C@H](CO)[C@@H](O)[C@H]2O`, the viability was 128.
`CN1CCC(CC1)COC2=CN=C(N=C2)C3=CC(=CC=C3)CN4/N=C(\C=C/C4=O)C5=CC(=CC=C5)C#N` displayed a viability of 96.2.
On the same count and under the same terms, as for `COCC1(CO)C(=O)C2CCN1CC2` (stereo not drawn), the figure is 108.
On the same count and under the same terms, the result for `C[S+](=O)([O-])c1ccc(C(=O)Nc2ccc(Cl)c(-c3ccccn3)c2)c(Cl)c1` reads 100; that for `COC1=CC=CC(=C1N)\C2=C\C(=O)C3=C(O2)C=CC=C3`, 57.1.
With `CCOC(=O)c1c(C)n(C)c2ccc(O)cc12`, the viability was determined as 108.
The same measure, in the same setting: as for `NC/1=N/C(=O)N(/C=N1)[C@@H]2O[C@H](CO)[C@@H](O)[C@H]2O`, the figure is 103; as for `CC1=C(/C=C/C(C)=C/C=C/C(C)=C\C(=O)O)C(C)(C)CCC1`, 90; as for `C[C@@]1(C(=O)Nc2ccc(F)nc2)CCCN1c1nc(Nc2cc(C3CC3)[nH]n2)c2cccn2n1`, 63.1.
Same read-out and setting: as for `O=C(Nc1cc2cc[nH]c2cn1)c1ccccc1`, the figure is 55.2.
Still for that read-out and setting: as for `CN(C)CCc1ccc(O)cc1`, the figure is 118.
The compound `CC(C)OC(=O)[C@H](C)N[P@](=O)(OC[C@H]1O[C@@H](N2\C=C/C(=O)NC2=O)[C@](C)(F)[C@@H]1O)OC3=CC=CC=C3` had a viability of 107.
In turn, `O=C(O)c1ccc2cc(-c3ccc(O)c(C45CC6CC(CC(C6)C4)C5)c3)ccc2c1` came in with a viability of 109.
Still for that read-out and setting: as for `c1ccc2c(Cc3c[nH]c4ccccc34)c[nH]c2c1`, the figure is 75.9; as for `CC(=O)Nc1ccc(O)cc1`, 123; as for `C[C@@H]1C[C@@H]([C@H](O)CC2CC(=O)NC(=O)C2)C(=O)[C@@H](C)C1`, 89.5.
Still for that read-out and setting: as for `CC(C)n1nc(-c2ccc3oc(N)nc3c2)c2c(N)ncnc21`, the figure is 29.8; as for `O=c1[nH]cnc2c1ncn2[C@H]1CC[C@@H](CO)O1`, 144; as for `CCNc1cc(NC2CCC(O)CC2)nc(Nc2ccc3c(ccn3Cc3ccccc3)c2)n1` (stereo not drawn), 99.8.
With `[NH2][Pt]([NH2])([Cl])[Cl]`, the viability came out at 128.
The compound `C=CCO/N=C(/C[C@H]1O[C@@H]2O[C@]3(C)CC[C@H]4[C@H](C)CC[C@@H]([C@H]1C)[C@@]24OO3)[C@H]1O[C@@H]2O[C@]3(C)CC[C@H]4[C@H](C)CC[C@@H]([C@H]1C)[C@@]24OO3` displayed a viability of 92.1.
Still for that read-out and setting: as for `CC(C)[C@H](N)C(=O)OCCOC[N]1C=NC2=C1\N=C(N)/NC2=O`, the figure is 107.
Same read-out and setting: the result for `Cc1n[nH]c(C)c1Cc1sc2c(c1C(=O)N1C[C@H](O)CO1)c(=O)n(C)c(=O)n2CC(C)C` reads 119.
The same measure, in the same setting: the result for `Cc1c(OCC(F)(F)F)ccnc1C[S+]([O-])c1nc2ccccc2[nH]1` (stereo not drawn) reads 82.7.
Compound `COc1cccc([C@@H](C)NCCCc2ccccc2Cl)c1` showed a viability of 105.
The same measure, in the same setting: the result for `Clc1ccccc1C(c1ccccc1)(c1ccccc1)n1ccnc1` reads 99.5; that for `CN(C)CCC=C1C2=C(C=CC=C2)\C=C/C3=C1C=CC=C3`, 115; that for `Cc1cc(SCc2sc(-c3ccc(C(F)(F)F)c(F)c3)nc2C)ccc1OCC(=O)O`, 127.
Turning to `Cc1nnc(C(C)C)n1[C@@H]1C[C@H]2CC[C@@H](C1)N2CC[C@H](NC(=O)C1CCC(F)(F)CC1)c1ccccc1`, the viability is 140.
The same measure, in the same setting: the result for `O=C(Nc1ccccc1Br)N[C@@H]1CCN(c2ccc(C(F)(F)F)cn2)C1` reads 114; that for `COC1=CC=C2[N](CCCN(C)C)C=C(C2=C1)C/3=C(/C(=O)NC3=O)C4=C[NH]C5=C4C=CC=C5`, 102; that for `CN1C(=O)\C(=C/C2=C1N=C(NC3CCOCC3)N=C2)OC4=C(F)C=C(F)C=C4`, 85.5.
The same measure, in the same setting: as for `N#Cc1cc(NC(=O)Nc2nnc(-c3ccncc3)s2)ccc1-c1cn[nH]c1`, the figure is 101; as for `C[C@@H](NC(=O)c1ncnc(N)c1Cl)c1ncc(C(=O)Nc2cc(C(F)(F)F)c(Cl)cn2)s1`, 109.
On the same count and under the same terms, as for `Cc1ccccc1C(=O)Nc1ccc(C(=O)N2CCCC(O)c3cc(Cl)ccc32)c(C)c1` (stereo not drawn), the figure is 108; as for `CC[C@@H](C(N)=O)N1CCCC1=O`, 6.2.
Take `CO[C@@H](C(=O)N1Cc2[nH]nc(NC(=O)c3ccc(N4CCN(C)CC4)cc3)c2C1)c1ccccc1`: the viability is 63.5.
Same read-out and setting: the result for `COc1ccc(C(=O)c2c(C)n(CCN3CCOCC3)c3cc(I)ccc23)cc1` reads 143.
The same measure, in the same setting: as for `CC(C)c1ccc2oc3nc(N)c(C(=O)O)cc3c(=O)c2c1`, the figure is 116.
Still for that read-out and setting: the result for `O=C(c1cncc(Br)c1)N1CCC(N2CCCC2)CC1` reads 115; that for `CC(C)C(=O)Oc1ccc(CO)cc1[C@H](CCN(C(C)C)C(C)C)c1ccccc1`, 84.7.
`Fc1cc(-c2cccc3ncc(-c4cnn(C5CCNCC5)c4)nc23)cc(F)c1CN1CCOCC1` came in with a viability of 108.
Still for that read-out and setting: as for `O=C(O)C1=NC(C(=O)O)CC(/C=C/N2c3cc(O)c(OC4OC(CO)C(O)C(O)C4O)cc3CC2C(=O)O)=C1` (stereo not drawn), the figure is 135.
Same read-out and setting: as for `COc1cc2c(cc1OC)CC(=O)N(CCCN(C)C[C@H]1Cc3cc(OC)c(OC)cc31)CC2.Cl`, the figure is 129; as for `[O-]C(=O)C1=C(C(=C(Cl)C(=C1Cl)Cl)Cl)C/2=C/3\C=C(I)/C(=O)/C(=C3OC4=C2C=C(I)C(=C4I)[O-])I`, 82.
Compound `O=C(O)c1ccc2c(c1)nc(Nc1cccc(Cl)c1)c1ccncc12` came in with a viability of 88.1.
Still for that read-out and setting: as for `O=C(O)c1ccccc1C(=O)Nc1ccc(-c2ccccc2)cc1`, the figure is 111.
On the same count and under the same terms, the result for `C=CC(=O)Nc1cc2c(Nc3ccc(F)c(Cl)c3)ncnc2cc1C#CC(C)(C)N1CCN(C)CC1` reads 75.9; that for `C=C(C)[C@@H]1CC[C@]2(C)CC[C@]3(C)[C@H](CC[C@@H]4[C@@]5(C)CC[C@H](O)C(C)(C)[C@@H]5CC[C@]43C)[C@@H]12`, 135; that for `CCN1\C=C(\C(O)=O)C(=O)C2=CC=C(C)N=C12`, 92.
The same measure, in the same setting: as for `COC(=O)\C1=C\CCN(C)C1`, the figure is 111; as for `Nc1n[nH]c2nnc(-c3c(-c4ccccc4)nn4ccccc34)cc12`, 88.7; as for `C[C@H]1C[C@H]2[C@@H]3CC[C@](O)(C(=O)CO)[C@@]3(C)C[C@H](O)[C@@H]2[C@@]\4(C)/C=C\C(=O)\C=C14`, 121.
Take `CC1(C)CCC(C)(C)c2cc(NC(=O)c3ccc(C(=O)O)cc3)ccc21`: the viability turned out to be 54.2.
Still for that read-out and setting: as for `CC1=CC(=CC(=C1C\C2=N\CCN2)C)C(C)(C)C`, the figure is 130; as for `CC1COC2(CCN(CC2)C/3=N/C(=O)C4=CC(=CC(=C4S3)[N+]([O-])=O)C(F)(F)F)O1` (stereo not drawn), 122.
On the same count and under the same terms, the result for `CCN(C(=O)C/1=C(O)/C2=C(C=CC=C2Cl)N(C)C1=O)C3=CC=CC=C3` reads 119; that for `Cc1c(C(=O)Nc2ccc(N3C[C@@H](C)O[C@@H](C)C3)nc2)cccc1-c1ccc(OC(F)(F)F)cc1`, 109; that for `O=C(O)c1cccnc1`, 103.
Still for that read-out and setting: the result for `Nc1nccc(-c2ccc3noc(-c4ccc(Cl)cc4)c3c2)n1` reads 80.1; that for `Cc1nccn1CC1CCc2c(c3ccccc3n2C)C1=O` (stereo not drawn), 103.
`CC(=O)CC(C1=CC=CC=C1)C/2=C(O)/C3=CC=CC=C3OC2=O` (stereo not drawn) had a viability of 118.
The same measure, in the same setting: the result for `COc1ccc([S+](=O)([O-])Nc2cccnc2Nc2ccc(O)cc2)cc1` reads 99.9.
`O=C(/C=C/c1c(C(=O)[O-])[nH]c2cc(Cl)cc(Cl)c12)Nc1ccccc1` displayed a viability of 111.
The same measure, in the same setting: as for `CC(C)=CC[C@@H](O)C/1=C/C(=O)C2=C(O)C=CC(=C2C1=O)O`, the figure is 78.5; as for `CC(C)=CCC/C(C)=C/CC/C(C)=C/CC/C(C)=C/CC/C(C)=C/CC/C(C)=C/CC/C(C)=C/CC/C(C)=C/CC/C(C)=C/CO`, 104; as for `C[C@]12COC(=O)C[C@@H]1CC[C@@H]1[C@@H]2CC[C@@]2(C)[C@H]1CC[C@]2(C)O`, 108.
The same measure, in the same setting: as for `OC[C@H]1O[C@H](C[C@@H]1O)N2\C=C(F)/C(=O)NC2=O`, the figure is 65.7.

The experiment is the same for the next values; noted with them: library / dose series: MIPE library, 11-point 1:3 dilution; top concentration 92.2 µM; 48 h.
`COc1cc(/C=C/C(=O)CC(=O)/C=C/c2ccc(O)c(OC)c2)ccc1O` gave a viability of 94.4.
Still for that read-out and setting: the result for `Cc1cc(Nc2cc(N3CCN(C)CC3)nc(/C=C/c3ccccc3)n2)n[nH]1` reads 54.1.
